Counter-ions that a name gives are not always drawn.
Target: T1, S2-receptor (Rattus norvegicus, UniProt P14842)
T1 construct: Caudal arteries from fasted male rats; from tissue; host or cells: rat caudal artery, helical strips
Assay: antagonistic activity on the effect of serotonin on the caudal artery of the rat (caudal artery test)
Conditions: rat caudal artery strips; serotonin 40 ng/ml; 5 minutes after adding the drug; read-out: ED50 (minimal concentration which reduces the amplitude of the serotonin-induced contraction to at least 50% of its normal value) (converted)
Procedure: ANTAGONISTIC ACTIVITY ON THE EFFECT OF SEROTONIN ON THE CAUDAL ARTERY OF THE RAT
Caudal arteries from fasted male rats (210-235 g) were used in the test. […] Submaximal contractions of the arterial strips were produced by adding single doses of serotonin (40 ng/ml) to the organ bath for 2 minutes with each time an interval of 10 minutes. The amplitude of the contraction was measured before and 5 minutes after adding the drug. After washing out, the agonist was added again three times in order to see whether the contraction was restored and normalized. […] In this connection the ED50 -values are the minimal concentrations of the concerned drugs which reduce the amplitude of the contraction to at least 50% of its normal value.

T1 sequence (P14842 whole entry): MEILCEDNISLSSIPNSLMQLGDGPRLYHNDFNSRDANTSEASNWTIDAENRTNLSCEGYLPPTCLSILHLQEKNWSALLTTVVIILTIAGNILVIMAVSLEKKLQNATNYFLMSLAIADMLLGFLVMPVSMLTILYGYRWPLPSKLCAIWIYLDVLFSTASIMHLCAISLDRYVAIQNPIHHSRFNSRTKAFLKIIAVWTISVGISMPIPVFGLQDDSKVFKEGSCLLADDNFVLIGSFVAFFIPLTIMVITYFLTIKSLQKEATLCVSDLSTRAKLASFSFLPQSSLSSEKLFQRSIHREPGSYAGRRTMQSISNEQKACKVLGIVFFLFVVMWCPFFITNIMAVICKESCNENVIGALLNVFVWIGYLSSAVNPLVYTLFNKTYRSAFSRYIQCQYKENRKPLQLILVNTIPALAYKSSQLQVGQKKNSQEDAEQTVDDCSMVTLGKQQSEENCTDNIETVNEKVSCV

| Structure (SMILES) | IC50 [pM] |
| --- | --- |
| Cc1nc2n(c(=O)c1CCN1CCC(=C(c3ccc(F)cc3)c3ccc(Br)cc3)CC1)CCCC2 [Compound 35] | 1.32 |
| Cc1ccccc1C(=C1CCN(CCc2c(C)nc3n(c2=O)CCCC3)CC1)c1ccccc1 [Compound 92] | 0.705 |
| Cc1nc2sccn2c(=O)c1CCN1CCC(=C(c2ccc(F)cc2)c2cccnc2)CC1 [Compound 53] | 2.82 |
| Cc1cc(C)n2c(=O)c(CCN3CCC(=C(c4ccc(F)cc4)c4ccc(F)cc4)CC3)c(C)nc2c1 [Compound 55] | 2.6 |
| Cc1ccccc1C(=C1CCN(CCc2c(C)nc3scc(C)n3c2=O)CC1)c1ccccc1 [Compound 81] | < 5.32 |
| Cc1ccc(C(=C2CCN(CCc3c(C)nc4scc(C)n4c3=O)CC2)c2ccc(F)cc2)cc1 [Compound 38] | 0.656 |
| COC1CN(CCc2c(C)nc3sccn3c2=O)CCC1=C(c1ccc(F)cc1)c1ccc(F)cc1 (centres unmarked) [Compound 63] | 2.56 |
| Cc1nc2sccn2c(=O)c1CCN1CCC(=C(c2ccc(O)cc2)c2ccc(F)cc2)CC1 [Compound 24] | 0.378 |
| Cc1nc2ccc(N)cn2c(=O)c1CCN1CCC(=C(c2ccc(F)cc2)c2ccc(F)cc2)CC1 [Compound 141, 7-amino-3-[2-[4-[bis(4-fluorophenyl)methylene]-1-piperidinyl]ethyl]-2-methyl-4H-pyrido[1,2-a]-pyrimidin-4-one] | 1.46 |
| Cc1nc2n(c(=O)c1CCN1CCC(=C(c3ccc(F)cc3)c3cccc(C(F)(F)F)c3)CC1)CCS2 [Compound 118] | 2.36 |
| Cc1nc2ccccn2c(=O)c1CCN1CCC(=C(c2ccc(F)cc2)c2ccc(F)cc2)C(O)C1 (centres unmarked) [Compound 61] | 4.51 |
| Cc1nc2n(c(=O)c1CCN1CCC(=C(c3ccc(F)cc3)c3cccc(C(F)(F)F)c3)CC1)CCCC2 [Compound 140, 3-[2-[4-[(4-fluorophenyl)[3-(trifluoromethyl)phenyl]methylene]-1-piperidinyl]ethyl]-6,7,8,9-tetrahydro-2-methyl-4H-pyrido[1,2-a]pyrimidin-4-one dihydrochloride] | 2.09 |
| COc1ccc(C(=C2CCN(CCc3c(C)nc4n(c3=O)CCCC4)CC2)c2ccc(F)cc2)cc1 [Compound 146, 3-[2-[4-[(4-fluorophenyl)(4-methoxyphenyl)methylene]-1-piperidinyl]ethyl]-6,7,8,9-tetrahydro-2-methyl-4H-pyrido[1,2-a]pyrimidin-4-one dihydrochloride] | 2.32 |
| Cc1nc2scc(C)n2c(=O)c1CCN1CCC(=C(c2ccc(F)cc2)c2cccnc2)CC1 [Compound 124] | 2.74 |
| Cc1nc2sccn2c(=O)c1CCN1CCC(=C(c2ccc(F)cc2)c2ccc(Br)cc2)CC1 [Compound 34] | 1.04 |
| Cc1nc2n(c(=O)c1CCN1CCC(=C(c3ccc(F)cc3)c3ccc(Cl)cc3)CC1)CCCC2 [Compound 11] | 2.54 |
| Cc1nc2ccccn2c(=O)c1CCN1CCC(=C(c2ccccc2)c2ccccc2)CC1 [Compound 18] | < 1.45 |
| Cc1nc2scc(C)n2c(=O)c1CCN1CCC(=C(c2ccc(F)cc2)c2ccc(F)cc2)CC1 [Compound 112, 6-[2-[4-[bis(4-fluorophenyl)methylene]-1-piperidinyl]ethyl]-3,7-dimethyl-5H-thiazolo[3,2-a]pyrimidin-5-one] | 0.651 |
| Cc1ccc(C(=C2CCN(CCc3c(C)nc4sccn4c3=O)CC2)c2ccc(C)cc2)cc1 [Compound 26] | 1.19 |
| Cc1cccc(C(=C2CCN(CCc3c(C)nc4n(c3=O)CCCS4)CC2)c2ccc(F)cc2)c1 [Compound 123] | 0.654 |
| Cc1cccc(C(=C2CCN(CCc3c(C)nc4ccccn4c3=O)CC2)c2ccc(F)cc2)c1 [Compound 15] | 1.35 |
| Cc1nc2n(c(=O)c1CCN1CCC(=C(c3ccccc3)c3ccc(F)cc3)CC1)CCS2 [Compound 116] | 2.82 |

| Structure (SMILES) | IC50 [pM] |
| --- | --- |
| Cc1cccc(C(=C2CCN(CCc3c(C)nc4n(c3=O)CCCC4)CC2)c2ccc(F)cc2)c1 [Compound 138, 3-[2-[4-[(4-fluorophenyl)(3-methylphenyl)methylene]-1-piperidinyl]ethyl]-6,7,8,9-tetrahydro-2-methyl-4H-pyrido[1,2-a]pyrimidin-4-one] | 2.65 |
| Cc1nc2sccn2c(=O)c1CCN1CCC(=C(c2ccccc2)c2ccccc2)CC1 [Compound 4] | 0.362 |
| Cc1cccc(C(=C2CCN(CCc3c(C)nc4sccn4c3=O)CC2)c2ccc(F)cc2)c1 [Compound 14] | 1.33 |
| Cc1nc2scc(C)n2c(=O)c1CCN1CCC(=C(c2ccccc2)c2ccc(F)cc2)CC1 [Compound 117] | < 1.33 |
| Cc1nc2ccccn2c(=O)c1CCN1CCC(=C(c2ccccc2)c2cccc(C(F)(F)F)c2)CC1 [Compound 87] | < 4.96 |
| Cc1nc2sccn2c(=O)c1CCN1CCC(=C(c2ccc(F)cc2)c2cccc(F)c2)CC1 [Compound 25] | 0.293 |
| Cc1nc2n(c(=O)c1CCN1CCC(=C(c3ccc(F)cc3)c3ccc(F)cc3)CC1)CCCS2 [Compound 29] | 0.648 |
| Cc1cccc(C(=C2CCN(CCc3c(C)nc4n(c3=O)CCCS4)CC2)c2ccc(F)cc2)c1 [Compound 121] | 2.65 |
| Cc1nc2ccccn2c(=O)c1CCN1CCC(=C(c2ccc(O)cc2)c2ccc(F)cc2)CC1 [Compound 20] | 2.66 |
| COc1ccc(C(=C2CCN(CCc3c(C)nc4ccccn4c3=O)CC2)c2ccc(F)cc2)cc1 [Compound 143, 3-[2-[4-[(4-fluorophenyl)(4-methoxyphenyl)methylene]-1-piperidinyl]ethyl]-2-methyl-4H-pyrido[1,2-a]pyrimidin-4-one dihydrochloride.monohydrate] | 1.3 |
| Cc1nc2n(c(=O)c1CCN1CCC(=C(c3ccccc3)c3ccc(F)cc3)CC1)CCCS2 [Compound 115] | 2.73 |
| Cc1nc2n(c(=O)c1CCN1CCC(=C(c3ccccc3)c3ccccc3)CC1)CCCS2 [Compound 104, 7-[2-[4-(diphenylmethylene)-1-piperidinyl]ethyl]-3,4-dihydro-8-methyl-2H,6H-pyrimido[2,1-b][1,3]-thiazin-6-one] | 0.699 |
| Cc1nc2n(c(=O)c1CCN1CCC(=C(c3ccc(F)cc3)c3cccc(F)c3)CC1)CCCC2 [Compound 30] | 1.18 |
| Cc1nc2sccn2c(=O)c1CCN1CCC(=C(c2ccc(F)cc2)c2ccc(F)cc2)C(O)C1 (centres unmarked) [Compound 60] | 2.63 |
| Cc1cccc(C(=C2CCN(CCc3c(C)nc4sccn4c3=O)CC2)c2ccccc2)c1 [Compound 69] | 0.702 |
| Cc1ccc(C(=C2CCN(CCc3c(C)nc4n(c3=O)CCCS4)CC2)c2ccc(F)cc2)cc1 [Compound 40] | 1.14 |
| COc1ccc(C(=C2CCN(CCc3c(C)nc4scc(C)n4c3=O)CC2)c2ccc(F)cc2)cc1 [Compound 142, 6-[2-[4-[(4-fluorophenyl)(4-methoxyphenyl)methylene]-1-piperidinyl]ethyl]-3,7-dimethyl-5H-thiazolo[3,2-a]pyrimidin-5-one] | 1.11 |
| Cc1nc2n(c(=O)c1CCN1CCC(=C(c3ccc(F)cc3)c3ccc(F)cc3)CC1)CCS2 [Compound 113] | 1.17 |
| Cc1nc2scc(C)n2c(=O)c1CCN1CCC(=C(c2ccc(O)cc2)c2ccc(F)cc2)CC1 [Compound 23, 6-[2-[4-[(4-fluorophenyl)-(4-hydroxyphenyl)methylene]-1-piperidinyl]ethyl]-3,7-dimethyl-5H-thiazolo[3,2-a]pyrimidin-5-one] | 1.14 |
| Cc1nc2n(c(=O)c1CCN1CCC(=C(c3ccc(F)cc3)c3ccc(Br)cc3)CC1)CCCS2 [Compound 33] | 5.05 |
| Cc1nc2ccccn2c(=O)c1CCN1CCC(=C(c2ccc(F)cc2)c2cccnc2)CC1 [Compound 57] | 2.86 |
| Cc1ccc2nc(C)c(CCN3CCC(=C(c4ccc(F)cc4)c4ccc(F)cc4)CC3)c(=O)n2c1 [Compound 50] | 1.46 |
